# In ChEMBL document CHEMBL2203015, “Synthesis and biological evaluation of 5-aryloxypyrazole derivatives bearing a rhodanine-3-aromatic acid as potential antimicrobial agents” (Bioorg Med Chem Lett, 2012):
# Experiments:
# Type in all cases: functional
# Staphylococcus aureus [1] = assay: Antibacterial activity against Staphylococcus aureus KCTC 209 incubated for 24 hrs serial dilution method; settings: KCTC 209, 24 h
# Staphylococcus aureus [2] = assay: Potency index, ratio of MIC for norfloxacin to MIC for compound against quinolone-resistant Staphylococcus aureus CCARM 3505 incubated for 24 hrs serial dilution method
# Staphylococcus aureus [3] = assay: Potency index, ratio of MIC for norfloxacin to MIC for compound against multidrug-resistant Staphylococcus aureus CCARM 3506 incubated for 24 hrs serial dilution method
# Staphylococcus aureus [4] = assay: Antibacterial activity against Staphylococcus aureus KCTC 503 incubated for 24 hrs serial dilution method; settings: KCTC 503, 24 h
# Staphylococcus aureus [5] = assay: Antibacterial activity against quinolone-resistant Staphylococcus aureus CCARM 3505 incubated for 24 hrs serial dilution method; settings: CCARM 3505, 24 h
# Staphylococcus aureus [6] = assay: Antibacterial activity against quinolone-resistant Staphylococcus aureus CCARM 3519 incubated for 24 hrs serial dilution method; settings: CCARM 3519, 24 h
# Staphylococcus aureus [7] = assay: Antibacterial activity against Staphylococcus aureus RN 4220 incubated for 24 hrs serial dilution method; settings: RN 4220, 24 h
# Staphylococcus aureus [8] = assay: Antibacterial activity against multidrug-resistant Staphylococcus aureus CCARM 3506 incubated for 24 hrs serial dilution method; settings: CCARM 3506, 24 h
# Escherichia coli = assay: Antibacterial activity against Escherichia coli 1356 incubated for 24 hrs serial dilution method; settings: Escherichia coli, 1356, 24 h
# Staphylococcus aureus [9] = assay: Potency index, ratio of MIC for norfloxacin to MIC for compound against quinolone-resistant Staphylococcus aureus CCARM 3519 incubated for 24 hrs serial dilution method
# Staphylococcus aureus [10] = assay: Potency index, ratio of MIC for norfloxacin to MIC for compound against multidrug-resistant Staphylococcus aureus CCARM 3167 incubated for 24 hrs serial dilution method
# Staphylococcus aureus [11] = assay: Antibacterial activity against multidrug-resistant Staphylococcus aureus CCARM 3167 incubated for 24 hrs serial dilution method; settings: CCARM 3167, 24 h
SMILES,MIC (Staphylococcus aureus [1]),Ratio (Staphylococcus aureus [2]),Ratio (Staphylococcus aureus [3]),MIC (Staphylococcus aureus [4]),MIC (Staphylococcus aureus [5]),MIC (Staphylococcus aureus [6]),MIC (Staphylococcus aureus [7]),MIC (Staphylococcus aureus [8]),MIC (Escherichia coli),Ratio (Staphylococcus aureus [9]),Ratio (Staphylococcus aureus [10]),MIC (Staphylococcus aureus [11])
Cc1nn(-c2ccccc2)c(Oc2cccc(C(F)(F)F)c2)c1/C=C1\SC(=S)N([C@@H](Cc2ccccc2)C(=O)O)C1=O,> 64 µg/mL,4,2,> 64 µg/mL,4 µg/mL,8 µg/mL,4 µg/mL,4 µg/mL,> 64 µg/mL,4,2,4 µg/mL
Cc1nn(-c2ccccc2)c(Oc2cccc(Cl)c2)c1/C=C1\SC(=S)N([C@@H](Cc2ccccc2)C(=O)O)C1=O,> 64 µg/mL,4,2,> 64 µg/mL,4 µg/mL,8 µg/mL,4 µg/mL,4 µg/mL,> 64 µg/mL,4,2,4 µg/mL
Cc1nn(-c2ccccc2)c(Oc2ccc(F)cc2)c1/C=C1\SC(=S)N([C@@H](Cc2ccccc2)C(=O)O)C1=O,> 64 µg/mL,4,2,> 64 µg/mL,8 µg/mL,8 µg/mL,8 µg/mL,8 µg/mL,> 64 µg/mL,4,2,4 µg/mL
Cc1nn(-c2ccccc2)c(Oc2c(Cl)cccc2Cl)c1/C=C1\SC(=S)N([C@@H](Cc2ccccc2)C(=O)O)C1=O,> 64 µg/mL,4,2,> 64 µg/mL,8 µg/mL,8 µg/mL,4 µg/mL,8 µg/mL,> 64 µg/mL,4,2,4 µg/mL
Cc1ccc(Oc2c(/C=C3\SC(=S)N([C@@H](Cc4ccccc4)C(=O)O)C3=O)c(C)nn2-c2ccccc2)c(C)c1,> 64 µg/mL,4,2,> 64 µg/mL,2 µg/mL,2 µg/mL,2 µg/mL,2 µg/mL,> 64 µg/mL,4,2,2 µg/mL
COc1ccccc1Oc1c(/C=C2\SC(=S)N([C@@H](Cc3ccccc3)C(=O)O)C2=O)c(C)nn1-c1ccccc1,> 64 µg/mL,4,2,> 64 µg/mL,8 µg/mL,8 µg/mL,16 µg/mL,8 µg/mL,> 64 µg/mL,4,2,8 µg/mL
Cc1nn(-c2ccccc2)c(Oc2ccc(Cl)cc2)c1/C=C1\SC(=S)N([C@@H](Cc2ccccc2)C(=O)O)C1=O,> 64 µg/mL,4,2,> 64 µg/mL,4 µg/mL,4 µg/mL,4 µg/mL,4 µg/mL,> 64 µg/mL,4,2,2 µg/mL
Cc1nn(-c2ccccc2)c(Oc2ccc(Br)cc2)c1/C=C1\SC(=S)N([C@@H](Cc2ccccc2)C(=O)O)C1=O,> 64 µg/mL,4,2,> 64 µg/mL,2 µg/mL,2 µg/mL,2 µg/mL,2 µg/mL,> 64 µg/mL,4,2,2 µg/mL
Cc1ccccc1Oc1c(/C=C2\SC(=S)N([C@@H](Cc3ccccc3)C(=O)O)C2=O)c(C)nn1-c1ccccc1,> 64 µg/mL,4,2,> 64 µg/mL,8 µg/mL,8 µg/mL,4 µg/mL,8 µg/mL,> 64 µg/mL,4,2,4 µg/mL
